The values that follow come from patent US12577239B2, “Sulfilimines or sulfoximines containing fungicidal heterocyclic compounds” (PI INDUSTRIES LTD., priority 2019, dated 2026).

The experiment has as its system Phytophthora infestans. As to the kind of experiment: microbe, parasite or virus in culture. The class given is cell-based. Particulars: 168 h, read-out: control compared to the untreated check.

In the case of `CS(=N)(=O)c1cccc(C#N)c1C1CC(c2csc(C3CCN(C(=O)Cn4nc(C(F)F)cc4C(F)F)CC3)n2)=NO1` (centres unmarked) [Compound 164], the inhibition of growth at 30 ppm was at least 70%.

With `CS(=N)(=O)c1cccc(Cl)c1C1CC(c2csc(C3CCN(C(=O)Cn4cc(C(F)(F)F)ccc4=O)CC3)n2)=NO1` (centres unmarked) [Compound 169, 1-(2-(4-(4-(5-(2-chloro-6-(S-methylsulfonimidoyl)phenyl)-4,5-dihydroisoxazol-3-yl)thiazol-2-yl)piperidin-1-yl)-2-oxoethyl)-5-(trifluoromethyl)pyridin-2(1H)-one], the inhibition of growth at 30 ppm is at least 70%.

Regarding `Cc1cc(C(F)(F)F)nn1CC(=O)N1CCC(c2nc(C3=NOC(c4c(F)cccc4N=S(C)(C)=O)C3)cs2)CC1` (centres unmarked) [Compound 6, ((3-fluoro-2-(3-(2-(1-(2-(5-methyl-3-(trifluoromethyl)-1H-pyrazol-1-yl)acetyl)piperidin-4-yl)thiazol-4-yl)-4,5-dihydroisoxazol-5-yl)phenyl)imino)dimethyl-λ^6-sulfanone], the inhibition of growth at 30 ppm is at least 70%.

As to `CN=S(C)(=O)c1cccc(Cl)c1C1CC(c2csc(C3CCN(C(=O)Cn4c(C)ccc(C(F)(F)F)c4=O)CC3)n2)=NO1` (centres unmarked) [Compound 174], the inhibition of growth at 30 ppm was at least 70%.

Regarding `CC(C)S(=N)(=O)c1cccc(Cl)c1C1CC(c2csc(C3CCN(C(=O)Cn4ccnc(C(F)(F)F)c4=O)CC3)n2)=NO1` (centres unmarked) [Compound 64], the inhibition of growth at 30 ppm is at least 70%.

With `CS(=N)(=O)c1cccc(Cl)c1C1CC(c2csc(C3CCN(C(=O)Cn4nc(C(F)F)cc4C(F)F)CC3)n2)=NO1` (centres unmarked) [Compound 3, (2-(3-(2-(1-(2-(3,5-bis (difluoromethyl)-1H-pyrazol-1-yl)acetyl)piperidin-4-yl)thiazol-4-yl)-4,5-dihydroisoxazol-5-yl)-3-chlorophenyl) (imino) (methyl)-λ^6-sulfanone], the inhibition of growth at 30 ppm is at least 70%.

Consider `CS(=N)(=O)c1cccc(Cl)c1C1CC(c2csc(C3CCN(C(=O)Cn4cc(Cl)cc(C(F)(F)F)c4=O)CC3)n2)=NO1` (centres unmarked) [Compound 1, 5-chloro-1-(2-(4-(4-(5-(2-chloro-6-(S-methylsulfonimidoyl)phenyl)-4,5-dihydroisoxazol-3-yl)thiazol-2-yl)piperidin-1-yl)-2-oxoethyl)-3-(trifluoromethyl)pyridin-2(1H)-one], for which the inhibition of growth at 30 ppm is at least 70%.

Turning to `CS(=N)(=O)c1cccc(Cl)c1C1CC(c2csc(C3CCN(C(=O)Cn4cc(C(F)(F)F)cc(Cl)c4=O)CC3)n2)=NO1` (centres unmarked) [Compound 2, 3-chloro-1-(2-(4-(4-(5-(2-chloro-6-(S-methylsulfonimidoyl)phenyl)-4,5-dihydroisoxazol-3-yl)thiazol-2-yl)piperidin-1-yl)-2-oxoethyl)-5-(trifluoromethyl)pyridin-2(1H)-one], the inhibition of growth at 30 ppm was at least 70%.
